Assay results from patent publication US20040176339A1, “Antineoplastic combinations” (Wyeth, priority 2003, published 2004).

Tests used:
[1] = Clinical trial of CCI-779 plus letrozole: safety/tolerability
Protocol: (§1) The combination of CCI-779 and letrozole in postmenopausal women with locally advanced or metastatic breast cancer is being evaluated in this clinical trial.
(§2) Randomization is in a 1:1:1 ratio (˜30 evaluable pts/arm), letrozole alone: letrozole with CCI daily (CCI daily arm): letrozole with CCI daily for 5 days every 2 weeks (CCI intermittent arm). All pts receive 2.5 mg letrozole daily.
(§3) Thus, the protocol was amended and doses were reduced to low dose (LD) schedules, 10 mg CCI daily and 30 mg CCI intermittent. As of 1 Dec.

[2] = tested on: locally advanced or metastatic breast cancer; assay: Clinical trial of CCI-779 plus letrozole: preliminary tumor responses (RECIST); type: in vivo, postmenopausal women; conditions: for pts with SD 24 wk: CCI pts on HD schedules, letrozole-alone pts; for partial responses (RECIST): evaluable pts: CCI n=13 (responders on HD schedules), letrozole alone n=6; for stable disease (RECIST): evaluable pts: CCI n=13, letrozole alone n=6
Protocol: as §1, §2, §3

[3] = Stability of CCI-779 in parenteral cosolvent formulation; type: physicochemical; conditions: citric acid at a concentration of less than 0.01% w/v
Excerpt: In this embodiment, the stability of CCI-779 in parenterally acceptable alcoholic cosolvents is enhanced by addition of an antioxidant to the formulation. Acceptable antioxidants include, but are not limited to, citric acid, d,l-α-tocopherol, BHA, BHT, monothioglycerol, ascorbic acid, propyl gallate, and mixtures thereof. Generally, the parenteral formulations useful in this embodiment of the invention will contain an antioxidant component(s) in a concentration ranging from 0.001% to 1% w/v, or 0.01% to 0.5% w/v, of the cosolvent concentrate, although lower or higher concentrations may be desired. Of the antioxidants, d,l-α-tocopherol is particularly desirable and is used at a concentration of 0.01 to 0.1% w/v with a preferred concentration of 0.075% w/v of the cosolvent concentrate.
Examples of such chelating agents include, e.g., citric acid, acetic acid, and ascorbic acid (which may function as both a classic antioxidant and a chelating agent in the present formulations). Other chelating agents include such materials as are capable of binding metal ions in solution, such as ethylene diamine tetra acetic acid (EDTA), its salts, or amino acids such as glycine are capable of enhancing the stability of CCI-779. […] Optimal concentrations for the selected antioxidant(s) can be readily determined by one of skill in the art, based upon the information provided herein.

[4] = tested on: human tumor xenografts; conditions: nude mice, cited from earlier work
[5] = tested on: human glioblastoma cell line; conditions: in vitro; cited from earlier work
[6] = tested on: histologically diverse tumor cells; conditions: cited from earlier work

SMILES | grade 3-4 toxicities ([1]; letrozole alone 2.5 mg daily, 12 pts) | pts with SD 24 wk [2] [pts] | partial responses (RECIST) [2] [pts] | stable disease (RECIST) [2] [pts] | stability of CCI-779 in formulation [3] | activity in orthotopic glioma model [4] | activity against human tumor xenografts ([4]; diverse histological types, gliomas particularly sensitive) | growth of human pancreatic tumors and breast cancer lines in vivo ([4]; several human pancreatic tumors, one of two breast cancer lines) | patients with toxicity that resulted in dose delay/reduction or discontinuation ([1]; female, human, in vivo) [patients] | growth factor (platelet-derived)-induced stimulation of glioblastoma cells [5] | stable disease, pts on HD schedules ([2]; CCI HD schedules (25 mg daily / 75 mg intermittent) with letrozole) [pts] | stable disease, pts on LD schedules ([2]; CCI LD schedules (10 mg daily / 30 mg intermittent) with letrozole) [pts] | complete response (RECIST) ([2]; evaluable CCI pts n=13, responder on HD schedule) [pts] | growth of tumor cells in vitro ([6]; CNS cancer, leukemia (T-cell), breast cancer, prostate cancer and melanoma lines among the most sensitive) | cell cycle effect ([6]; in vitro tumor cells)
N#Cc1ccc(C(c2ccc(C#N)cc2)n2cncn2)cc1 [letrozole, reference compound] | No grade 3-4 toxicities | 1 | 2 | 4 |  |  |  |  |  |  |  |  |  |  | 
CO[C@H]1C[C@@H]2CC[C@@H](C)[C@@](O)(O2)C(=O)C(=O)N2CCCC[C@H]2C(=O)O[C@H]([C@H](C)C[C@@H]2CC[C@@H](OC(=O)C(C)(CO)CO)[C@H](OC)C2)CC(=O)[C@H](C)/C=C(\C)[C@@H](O)[C@@H](OC)C(=O)[C@H](C)C[C@H](C)/C=C/C=C/C=C/1C [CCI-779, Rapamycin 42-ester with 3-hydroxy-2-(hydroxymethyl)-2-methylpropionic acid] |  | 4 | 3 | 9 | enhanced the stability | active | has activity against human tumor xenografts | inhibited | 3 | markedly suppressed | 6 | 3 | 1 | inhibit the growth | arrested cells in the G1 phase
